{"source": "paper PMC3165084", "about": "(Leukemia, 2011)", "assay": "Plasma pharmacokinetics of tipifarnib, LCMS/MS, non-compartmental analysis", "format": "in vivo, human", "key": {"[1]": {"conditions": "Day 1, 1200 mg, plasma, individual subjects 4-10"}, "[2]": {"conditions": "Day 1, 1400 mg, plasma, individual subjects 1-3"}, "[3]": {"conditions": "Day 5, 1200 mg bid, plasma, individual subjects 4-10"}}, "note": "Several values for one entry are separate records, joined by “and”; a condition that tells them apart may be missing. Equal entries are not always repeated."}
{"smiles": "Cn1cncc1[C@@](N)(c1ccc(Cl)cc1)c1ccc2c(c1)c(-c1cccc(Cl)c1)cc(=O)n2C", "note": "[tipifarnib, Tipifarnib]", "values": [{"measurement": "Cmin", "setting": "[1]", "result": "132 ng/mL and 339 ng/mL and 166 ng/mL and 82 ng/mL and 402 ng/mL"}, {"measurement": "Tmax", "setting": "[1]", "result": 3.0, "unit": "h"}, {"measurement": "Cmin, low", "setting": "Day 1, 1400 mg, plasma", "result": 145, "unit": "ng/mL"}, {"measurement": "Cmin, median", "setting": "Day 1, 1400 mg, plasma", "result": 237, "unit": "ng/mL"}, {"measurement": "Cmin", "setting": "[2]", "result": "329 ng/mL and 145 ng/mL"}, {"measurement": "Tmax", "setting": "[2]", "result": 3.2, "unit": "h"}, {"measurement": "AUC12h", "setting": "[3]", "result": "4815 ng·h/mL and 7001 ng·h/mL and 7787 ng·h/mL and 9221 ng·h/mL"}, {"measurement": "Cmax", "setting": "[3]", "result": "1880 ng/mL and 2490 ng/mL and 1020 ng/mL"}, {"measurement": "Cmin", "setting": "[3]", "result": "97 ng/mL and 204 ng/mL and 234 ng/mL and 283 ng/mL and 166 ng/mL and 113 ng/mL and 101 ng/mL"}, {"measurement": "Tmax", "setting": "[3]", "result": "3.0 h and 3.1 h and 2.8 h"}, {"measurement": "Cmin", "setting": "Day 5, 1400 mg bid, plasma, individual subjects 1-3", "result": "781 ng/mL and 170 ng/mL"}, {"measurement": "tipifarnib accumulation between days 1 and 5", "setting": "at 1200 and 1400 mg bid", "result": "relatively modest"}, {"measurement": "AUC(0-t)", "setting": "human, plasma, oral, 1200 mg, AUC12h, high, Day 1, 1200 mg, plasma", "result": 15700, "unit": "ng·h/mL"}, {"measurement": "AUC(0-t)", "setting": "human, plasma, oral, 1200 mg, AUC12h, high, Day 5, 1200 mg bid, plasma", "result": 14200, "unit": "ng·h/mL"}, {"measurement": "AUC(0-t)", "setting": "human, plasma, oral, 1200 mg, AUC12h, low, Day 1, 1200 mg, plasma", "result": 3240, "unit": "ng·h/mL"}, {"measurement": "AUC(0-t)", "setting": "human, plasma, oral, 1200 mg, AUC12h, low, Day 5, 1200 mg bid, plasma", "result": 4620, "unit": "ng·h/mL"}, {"measurement": "AUC(0-t)", "setting": "human, plasma, oral, 1200 mg, AUC12h, median, Day 1, 1200 mg, plasma", "result": 4740, "unit": "ng·h/mL"}, {"measurement": "AUC(0-t)", "setting": "human, plasma, oral, 1200 mg, AUC12h, median, Day 5, 1200 mg bid, plasma", "result": 7370, "unit": "ng·h/mL"}, {"measurement": "Cmax", "setting": "human, plasma, oral, 1200 mg, Cmax, high, Day 1, 1200 mg, plasma", "result": 3160, "unit": "ng/mL"}, {"measurement": "Cmax", "setting": "human, plasma, oral, 1200 mg, Cmax, high, Day 5, 1200 mg bid, plasma", "result": 2500, "unit": "ng/mL"}, {"measurement": "Cmax", "setting": "human, plasma, oral, 1200 mg, Cmax, low, Day 1, 1200 mg, plasma", "result": 404, "unit": "ng/mL"}, {"measurement": "Cmax", "setting": "human, plasma, oral, 1200 mg, Cmax, low, Day 5, 1200 mg bid, plasma", "result": 762, "unit": "ng/mL"}, {"measurement": "Cmax", "setting": "human, plasma, oral, 1200 mg, Cmax, median, Day 1, 1200 mg, plasma", "result": 906, "unit": "ng/mL"}, {"measurement": "Cmax", "setting": "human, plasma, oral, 1200 mg, Cmax, median, Day 5, 1200 mg bid, plasma", "result": 1210, "unit": "ng/mL"}, {"measurement": "concentration at 5 day", "setting": "human, plasma, oral, 1200 mg, Cmin, high, Day 5, 1200 mg bid, plasma", "result": 283, "unit": "ng/mL"}, {"measurement": "concentration at 5 day", "setting": "human, plasma, oral, 1200 mg, Cmin, low, Day 5, 1200 mg bid, plasma", "result": 97, "unit": "ng/mL"}, {"measurement": "concentration at 5 day", "setting": "human, plasma, oral, 1200 mg, Cmin, median, Day 5, 1200 mg bid, plasma", "result": 166, "unit": "ng/mL"}, {"measurement": "Tmax", "setting": "human, plasma, oral, 1200 mg, Tmax, high, Day 1, 1200 mg, plasma", "result": 3, "unit": "h"}, {"measurement": "Tmax", "setting": "human, plasma, oral, 1200 mg, Tmax, high, Day 5, 1200 mg bid, plasma", "result": 5, "unit": "h"}, {"measurement": "Tmax", "setting": "human, plasma, oral, 1200 mg, Tmax, low, Day 1, 1200 mg, plasma", "result": 2, "unit": "h"}, {"measurement": "Tmax", "setting": "human, plasma, oral, 1200 mg, Tmax, low, Day 5, 1200 mg bid, plasma", "result": 1, "unit": "h"}, {"measurement": "Tmax", "setting": "human, plasma, oral, 1200 mg, Tmax, median, Day 1, 1200 mg, plasma", "result": 2.1, "unit": "h"}, {"measurement": "Tmax", "setting": "human, plasma, oral, 1200 mg, Tmax, median, Day 5, 1200 mg bid, plasma", "result": 3, "unit": "h"}, {"measurement": "AUC(0-t)", "setting": "human, plasma, oral, 1400 mg, AUC12h, high, Day 1, 1400 mg, plasma", "result": 18700, "unit": "ng·h/mL"}, {"measurement": "AUC(0-t)", "setting": "human, plasma, oral, 1400 mg, AUC12h, high, Day 5, 1400 mg bid, plasma", "result": 25600, "unit": "ng·h/mL"}, {"measurement": "AUC(0-t)", "setting": "human, plasma, oral, 1400 mg, AUC12h, low, Day 1, 1400 mg, plasma", "result": 8950, "unit": "ng·h/mL"}, {"measurement": "AUC(0-t)", "setting": "human, plasma, oral, 1400 mg, AUC12h, low, Day 5, 1400 mg bid, plasma", "result": 8710, "unit": "ng·h/mL"}, {"measurement": "AUC(0-t)", "setting": "human, plasma, oral, 1400 mg, AUC12h, median, Day 1, 1400 mg, plasma", "result": 13800, "unit": "ng·h/mL"}, {"measurement": "AUC(0-t)", "setting": "human, plasma, oral, 1400 mg, AUC12h, median, Day 5, 1400 mg bid, plasma", "result": 17100, "unit": "ng·h/mL"}, {"measurement": "Cmax", "setting": "human, plasma, oral, 1400 mg, Cmax, high, Day 1, 1400 mg, plasma", "result": 4240, "unit": "ng/mL"}, {"measurement": "Cmax", "setting": "human, plasma, oral, 1400 mg, Cmax, high, Day 5, 1400 mg bid, plasma", "result": 3890, "unit": "ng/mL"}, {"measurement": "Cmax", "setting": "human, plasma, oral, 1400 mg, Cmax, low, Day 1, 1400 mg, plasma", "result": 1690, "unit": "ng/mL"}, {"measurement": "Cmax", "setting": "human, plasma, oral, 1400 mg, Cmax, low, Day 5, 1400 mg bid, plasma", "result": 1370, "unit": "ng/mL"}, {"measurement": "Cmax", "setting": "human, plasma, oral, 1400 mg, Cmax, median, Day 1, 1400 mg, plasma", "result": 3920, "unit": "ng/mL"}, {"measurement": "Cmax", "setting": "human, plasma, oral, 1400 mg, Cmax, median, Day 5, 1400 mg bid, plasma", "result": 2630, "unit": "ng/mL"}, {"measurement": "concentration at 12 h", "setting": "human, plasma, oral, 1400 mg, Cmin, high, Day 1, 1400 mg, plasma", "result": 329, "unit": "ng/mL"}, {"measurement": "concentration at 5 day", "setting": "human, plasma, oral, 1400 mg, Cmin, high, Day 5, 1400 mg bid, plasma", "result": 781, "unit": "ng/mL"}, {"measurement": "concentration at 5 day", "setting": "human, plasma, oral, 1400 mg, Cmin, low, Day 5, 1400 mg bid, plasma", "result": 170, "unit": "ng/mL"}, {"measurement": "concentration at 5 day", "setting": "human, plasma, oral, 1400 mg, Cmin, median, Day 5, 1400 mg bid, plasma", "result": 476, "unit": "ng/mL"}, {"measurement": "Tmax", "setting": "human, plasma, oral, 1400 mg, Tmax, high, Day 1, 1400 mg, plasma", "result": 3.2, "unit": "h"}, {"measurement": "Tmax", "setting": "human, plasma, oral, 1400 mg, Tmax, high, Day 5, 1400 mg bid, plasma", "result": 5, "unit": "h"}, {"measurement": "Tmax", "setting": "human, plasma, oral, 1400 mg, Tmax, low, Day 1, 1400 mg, plasma", "result": 2, "unit": "h"}, {"measurement": "Tmax", "setting": "human, plasma, oral, 1400 mg, Tmax, low, Day 5, 1400 mg bid, plasma", "result": 3, "unit": "h"}, {"measurement": "Tmax", "setting": "human, plasma, oral, 1400 mg, Tmax, median, Day 1, 1400 mg, plasma", "result": 3.1, "unit": "h"}, {"measurement": "Tmax", "setting": "human, plasma, oral, 1400 mg, Tmax, median, Day 5, 1400 mg bid, plasma", "result": 4, "unit": "h"}, {"measurement": "AUC(0-t)", "setting": "human, plasma, oral, median AUC12h, remaining patients, day 1", "result": 7580, "unit": "ng·h/mL"}, {"measurement": "AUC(0-t)", "setting": "human, plasma, oral, median AUC12h, remaining patients, day 5", "result": 4320, "unit": "ng·h/mL"}, {"measurement": "AUC(0-t)", "setting": "human, plasma, oral, median AUC12h, two patients with decreased blasts, day 1", "result": 16300, "unit": "ng·h/mL"}, {"measurement": "AUC(0-t)", "setting": "human, plasma, oral, median AUC12h, two patients with decreased blasts, day 5", "result": 13200, "unit": "ng·h/mL"}, {"measurement": "Cmax", "setting": "human, plasma, oral, median Cmax, remaining patients, day 1", "result": 1290, "unit": "ng/mL"}, {"measurement": "Cmax", "setting": "human, plasma, oral, median Cmax, remaining patients, day 5", "result": 881, "unit": "ng/mL"}, {"measurement": "Cmax", "setting": "human, plasma, oral, median Cmax, two patients with decreased blasts, day 1", "result": 2440, "unit": "ng/mL"}, {"measurement": "Cmax", "setting": "human, plasma, oral, median Cmax, two patients with decreased blasts, day 5", "result": 2550, "unit": "ng/mL"}, {"measurement": "fold higher median AUC and Cmax in the two patients with decreased blasts vs median of the non-responders", "setting": "on both day 1 and day 5", "result": "2–3 fold"}, {"measurement": "pharmacokinetic behavior (dose linearity)", "setting": "present data taken together with earlier studies", "result": "linear up to doses as high as 1400 mg bid"}]}
